Source: patent publication US10494364B2, “Cathepsin K inhibitors and application thereof” (SUNSHINE LAKE PHARMA CO., LTD., priority 2015, dated 2019)
Like-named read-outs stand apart in the source and are kept apart here.

How the values were obtained:
[1] = Pharmacokinetic test in SD rats (iv and oral gavage), plasma by LC/MS/MS; format: in vivo; details: rat, male SD rats; for AUC(0-inf): read-out: AUCINF h * ng/ml; for AUC(0-t): read-out: AUClast h * ng/ml; for half-life: read-out: T1/2 h (converted); for Vd: read-out: Vss; for bioavailability: po 5 mg/kg vs iv 1 mg/kg
Protocol: Healthy adult male SD rats were divided into groups with administration of compound by intravenous injection and oral gavage.
2. Preparation of the Test Compound Solution:
A certain amount of the test compound was weighed, and then mixed with 5% DMSO, 10% Kolliphor HS15 and 85% Saline to prepare a clarified solution.
3. Administration and Sample Collection:
All groups were fasted for 12 hours before administering, free drinking, and fed at 3 hours after administration. Each group was administered with test compound by vein intravenous (iv, 1 mg/kg) in the hind foot and oral gavage (po, 5 mg/kg) independently. The blood samples were collected from tail vein at the time point of 0 h, 0.083 h, 0.25 h, 0.5 h, 1 h, 2 h, 4 h, 6 h, 8 h and 24 h after administration and the amount of blood sample collected at each time point was about 200-400 μL. The blood samples collected at each time point were independently placed in K2EDTA anticoagulation tube and preserved in the incubator containing ice packs. The plasma of each blood sample above was separated by centrifugation at 4600 r/min at 4° C. for 5 min in 15 minutes after collecting. The plasma samples were preserved at −80° C. for measuring.
The content of the compound in plasma of rat after administration was determined by LC/MS/MS method.

[2] = target: T1, human cathepsin K (Homo sapiens, UniProt P43235); assay: Assay of cathepsin K inhibitory activity in vitro; format: biochemical; details: IC50 against human cathepsin K; substrate Z-Phe-Arg-AMC 10 μM; 25° C.; read-out: Cat-K
T1 sequence (P43235 115-329): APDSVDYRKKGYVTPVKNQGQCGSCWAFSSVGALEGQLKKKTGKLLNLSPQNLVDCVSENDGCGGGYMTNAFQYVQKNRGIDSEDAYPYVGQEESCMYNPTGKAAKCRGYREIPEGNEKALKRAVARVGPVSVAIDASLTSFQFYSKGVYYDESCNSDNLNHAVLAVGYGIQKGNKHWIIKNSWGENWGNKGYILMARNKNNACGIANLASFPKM
Protocol: Assay Method of Cathepsin K Inhibitory Activity In Vitro
Using 45000-fold diluted cathepsin K solution and 10 μM Z-Phe-Arg-AMC as substrate, the test compound and cathepsin K solution were incubated at 25° C. for 15 min in a 15 μL reaction system according to the optimized experimental condition.

[3] = target: human cathepsin S (Homo sapiens, UniProt P25774); assay: Assay of cathepsin S inhibitory activity in vitro; format: biochemical; details: IC50 against human cathepsin S; substrate Z-VVR-AMC 20 μM; 25° C.; read-out: Cat-S
Chain of human cathepsin S (P25774 115-331): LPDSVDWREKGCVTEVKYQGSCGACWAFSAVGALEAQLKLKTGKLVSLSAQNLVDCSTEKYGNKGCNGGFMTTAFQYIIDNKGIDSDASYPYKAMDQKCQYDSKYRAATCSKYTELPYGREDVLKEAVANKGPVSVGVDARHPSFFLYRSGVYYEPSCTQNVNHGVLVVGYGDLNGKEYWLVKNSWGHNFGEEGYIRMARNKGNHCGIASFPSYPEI
Protocol: Assay Method of Cathepsin S Inhibitory Activity In Vitro
0.25 ng/L was the final concentration of Cathepsin S in the enzyme reaction, and Z-VVR-AMC with the final concentration of 20 μM was added into the reaction system as substrate, in the reaction system the test compound and enzyme had been incubated at 25° C. for 15 min.

[4] = target: human cathepsin L (Homo sapiens, UniProt P07711); assay: Assay of cathepsin L inhibitory activity in vitro; format: biochemical; details: IC50 against human cathepsin L; substrate Z-Phe-Arg-AMC 10 μM; 25° C.; read-out: Cat-L
Chain of human cathepsin L (P07711 114-333): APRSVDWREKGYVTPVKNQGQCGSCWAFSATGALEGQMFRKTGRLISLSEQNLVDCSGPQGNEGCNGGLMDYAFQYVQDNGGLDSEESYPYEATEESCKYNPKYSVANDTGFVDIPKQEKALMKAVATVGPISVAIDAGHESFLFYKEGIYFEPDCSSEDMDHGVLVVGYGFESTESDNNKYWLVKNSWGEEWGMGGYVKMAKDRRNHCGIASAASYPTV
Protocol: Assay Method of Cathepsin L Inhibitory Activity In Vitro
0.01 ng/μL was the final concentration of Cathepsin L in the enzyme reaction, and Z-Phe-Arg-AMC with the final concentration of 10 μM was added into the reaction system as substrate, in the reaction system the test compound and enzyme had been incubated at 25° C. for 15 min.

[5] = target: human cathepsin B (Homo sapiens, UniProt P07858); assay: Assay of cathepsin B inhibitory activity in vitro; format: biochemical; details: IC50 against human cathepsin B; substrate Z-Phe-Arg-AMC 10 μM; 25° C.; read-out: Cat-B
Protocol: Assay Method of Cathepsin B Inhibitory Activity In Vitro
0.01 ng/μL was the final concentration of Cathepsin B in the enzyme reaction, and Z-Phe-Arg-AMC with the final concentration of 10 μM was added into the reaction system as substrate, in the reaction system the test compound and enzyme had been incubated at 25° C. for 15 min.

Cmax ([1]; iv 1 mg/kg) [ng/mL] | Tmax ([1]; iv 1 mg/kg) [h] | clearance ([1]; iv 1 mg/kg) [mL/min/kg] | AUC(0-inf) ([1]; iv 1 mg/kg) [ng·h/mL] | AUC(0-t) ([1]; iv 1 mg/kg) [ng·h/mL] | half-life ([1]; iv 1 mg/kg) [h] | Vd ([1]; iv 1 mg/kg) [L/kg] | Cmax ([1]; po 5 mg/kg) [ng/mL] | Tmax ([1]; po 5 mg/kg) [h] | bioavailability [1] [%] | AUC(0-inf) ([1]; po 5 mg/kg) [ng·h/mL] | AUC(0-t) ([1]; po 5 mg/kg) [ng·h/mL] | half-life ([1]; po 5 mg/kg) [h] | IC50 [2] [nM] | IC50 [3] [nM] | IC50 [4] [nM] | IC50 [5] [nM] | Compound
1110 | 0.08 | 1.8 | 9230 | 8150 | 7.84 | 1.09 | 1890 | 4.67 | 60.6 | 28400 | 25100 | 6.14 | 1.8 | 2500 | > 10000 | 1400 | N#CC1(NC(=O)C2(NC(=O)c3cc4ccc(-c5ccc(-n6cncn6)cc5)cc4o3)CCC(F)(F)CC2)CC1 [Example 12, 6-(4-(1H-1,2,4-triazol-1-yl)phenyl)-N-(1-((1-cyanocyclopropyl)carbamoyl)-4,4-difluorocyclohexyl)benzofuran-2-carboxamide]
500 | 0.083 | 5.14 | 3320 | 3210 | 4.72 | 1.92 | 1380 | 3.33 | 98.6 | 19900 | 18600 | 5.65 | 2.2 | 2800 | > 10000 | 806 | N#CC1(NC(=O)C2(NC(=O)c3cc4ccc(-c5ccc(-n6ccnn6)cc5)cc4o3)CCC(F)(F)CC2)CC1 [Example 18, 6-(4-(1H-1,2,3-triazol-1-yl)phenyl)-N-(1-((1-cyanocyclopropyl)carbamoyl)-4,4-difluorocyclohexyl)benzofuran-2-carboxamide]
382 | 0.78 | 4.13 | 4190 | 3800 | 7.1 | 2.27 | 390 | 4 | 72.1 | 15200 | 14300 | 5.84 | 0.69 | 1340 | > 10000 | 440 | Cc1cc(-c2ccc3cc(C(=O)NC4(C(=O)NC5(C#N)CC5)CCC(F)(F)CC4)oc3c2)ccc1-n1cncn1 [Example 43, N-(1-((1-cyanocyclopropyl)carbamoyl)-4,4-difluorocyclohexyl)-6-(3-methyl-4-(1H-1,2,4-triazol-1-yl)phenyl)benzofuran-2-carboxamide]
798 | 0.083 | 2.91 | 5740 | 5470 | 5.9 | 1.2 | 2230 | 2.67 | 75.6 | 21700 | 21100 | 4.66 | 1.4 | > 10000 | > 10000 | 2500 | N#CC1(NC(=O)C2(NC(=O)c3cc4ccc(-c5ccc(-n6cncn6)c(OC(F)F)c5)cc4o3)CCC(F)(F)CC2)CC1 [Example 53, N-(1-((1-cyanocyclopropyl)carbamoyl)-4,4-difluorocyclohexyl)-6-(3-(difluoromethoxy)-4-(1H-1,2,4-triazol-1-yl)phenyl)benzofuran-2-carboxamide]
1240 | 0.33 | 1.73 | 9700 | 9280 | 5.59 | 0.69 | 2260 | 3 | 46.9 | 22700 | 21900 | 5.06 | 1.3 | > 10000 | > 10000 | 5000 | CCOc1cc(-c2ccc3cc(C(=O)NC4(C(=O)NC5(C#N)CC5)CCC(F)(F)CC4)oc3c2)ccc1-n1cncn1 [Example 54, N-(1-((1-cyanocyclopropyl)carbamoyl)-4,4-difluorocyclohexyl)-6-(3-ethoxy-4-(1H-1,2,4-triazol-1-yl)phenyl)benzofuran-2-carboxamide]
